Test results: patent US8609610B2, “Inhibitors of the trypsin-like site of the proteasome and methods of use thereof” (Trustees of Dartmouth College, priority 2011, dated 2013)

Legend:
Test in all cases: PROTEASOMEGLO assay of proteasome inhibition in MM cells
Type in all cases: cell-based
[1] = target: T1, chymotrypsin-like sites (β5) of proteasome in MM cells (Homo sapiens, UniProt P28074)
T1 sequence (P28074 60-263): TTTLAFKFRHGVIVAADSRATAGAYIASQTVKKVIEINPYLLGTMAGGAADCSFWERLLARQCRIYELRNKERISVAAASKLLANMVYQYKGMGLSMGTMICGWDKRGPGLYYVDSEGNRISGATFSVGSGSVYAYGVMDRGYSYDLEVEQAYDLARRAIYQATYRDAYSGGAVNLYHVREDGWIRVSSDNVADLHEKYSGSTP
Description: (§1) Proteasome inhibition in MM cells was measured with luminogenic substrates using PROTEASOMEGLO assay (Promega). […] An aliquot of culture was pelleted and medium was removed and replaced with PBS. The resulting cell suspension was mixed with luminogenic substrates in the manufacturer-provided lysis/assay buffer. After 3 minutes mixing on an orbital shaker, the plate was incubated in the dark for additional 17 minutes, followed by the measurements of the luminescence, performed in triplicate for each substrate/data point. Data were analyzed as for purified proteasomes. […] Cells (1×10^6 per well of a 6-well plate) were incubated with the inhibitors for 4 hours at 37° C. and this was followed by a 2 hour incubation with 5 μM BODIPY-TMR-epoxomicin. Subsequently, the medium was removed and the cells were washed with PBS and harvested. […] The supernatant was collected and the protein concentration was determined by the Bradford assay, and used to normalize gel loading. The samples were analysed by SDS-PAGE and fluorescent densitometry as described for competition experiment in cell lysates. IC50 values were calculated from three independent experiments using […] PRISM software.

[2] = target: T2, trypsin-like sites (β2) of proteasome in MM cells (Homo sapiens, UniProt Q99436)
T2 construct: endogenous in cells; host or cells: NCI-H929, RPMI-8226 and other MM cell lines
T2 sequence (Q99436 44-277): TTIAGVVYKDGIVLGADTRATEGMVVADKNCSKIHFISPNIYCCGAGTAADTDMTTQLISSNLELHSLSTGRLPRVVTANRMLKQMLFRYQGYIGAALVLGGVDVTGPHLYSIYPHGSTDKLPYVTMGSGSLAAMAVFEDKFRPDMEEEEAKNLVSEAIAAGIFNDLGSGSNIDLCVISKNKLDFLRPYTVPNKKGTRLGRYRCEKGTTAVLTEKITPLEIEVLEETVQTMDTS
Description: as §1

[3] = target: T3, caspase-like sites (β1) of proteasome in MM cells (Homo sapiens, UniProt P28072+Q99436)
T3 sequence (P28072 35-239): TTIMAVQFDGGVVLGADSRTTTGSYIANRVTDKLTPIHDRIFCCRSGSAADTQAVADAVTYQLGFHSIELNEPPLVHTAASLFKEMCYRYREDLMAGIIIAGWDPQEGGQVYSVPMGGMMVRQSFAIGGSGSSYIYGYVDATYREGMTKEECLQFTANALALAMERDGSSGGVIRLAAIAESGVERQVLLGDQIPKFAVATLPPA
T3 sequence (Q99436 44-277): T2 sequence (Q99436 44-277)

CC(C)C[C@H](NC(=O)[C@H](Cc1c(F)c(F)c(F)c(F)c1F)NC(=O)[C@H](Cc1ccccc1)NC(=O)[C@H](Cc1ccccc1)N=[N+]=[N-])C(=O)[C@@]1(C)CO1 [LU-005]
Inhibition of active sites β5 ([1]; KMS-12-BM, LU-005 0.037 μM 1 h): 48 ± 9 % control | Inhibition of active sites β5 ([1]; KMS-12-BM, LU-005 0.33 μM 1 h): 81 ± 3 % control | Inhibition of active sites β5 ([1]; KMS-12-BM, LU-005 1.0 μM 1 h): 95 ± 2 % control | Inhibition of active sites β5 ([1]; KMS-18, LU-005 0.037 μM 1 h): 14 % control | Inhibition of active sites β5 ([1]; KMS-18, LU-005 0.33 μM 1 h): 69 ± 8 % control | Inhibition of active sites β5 ([1]; KMS-18, LU-005 1.0 μM 1 h): 85 ± 6 % control | Inhibition of active sites β5 ([1]; KMS-18, LU-005 3.0 μM 1 h): 94 ± 4 % control | Inhibition of active sites β5 ([1]; KMS-18, LU-005 9.0 μM 1 h): 97 ± 1 % control | Inhibition of active sites β5 ([1]; MM1.R, LU-005 0.004 μM 1 h): 17 ± 4 % control | Inhibition of active sites β5 ([1]; NCI-H929, LU-005 0.0014 μM 1 h): 22 ± 4 % control | Inhibition of active sites β5 ([1]; NCI-H929, LU-005 0.004 μM 1 h): 22 ± 11 % control | Inhibition of active sites β5 ([1]; RPMI-8226, LU-005 0.037 μM 1 h): 45 ± 26 % control | Inhibition of active sites β5 ([1]; RPMI-8226, LU-005 0.33 μM 1 h): 62 ± 32 % control | Inhibition of active sites β5 ([1]; RPMI-8226, LU-005 1.0 μM 1 h): 82 ± 16 % control | Inhibition of active sites β2 ([2]; KMS-12-BM, LU-005 0.037 μM 1 h): −12 ± 1 % control | Inhibition of active sites β2 ([2]; KMS-12-BM, LU-005 0.33 μM 1 h): 3 ± 18 % control | Inhibition of active sites β2 ([2]; KMS-12-BM, LU-005 1.0 μM 1 h): 29 ± 7 % control | Inhibition of active sites β2 ([2]; KMS-18, LU-005 0.037 μM 1 h): −13 ± 13 % control | Inhibition of active sites β2 ([2]; KMS-18, LU-005 0.33 μM 1 h): 24 ± 6 % control | Inhibition of active sites β2 ([2]; KMS-18, LU-005 1.0 μM 1 h): 38 ± 5 % control | Inhibition of active sites β2 ([2]; KMS-18, LU-005 3.0 μM 1 h): 50 ± 14 % control | Inhibition of active sites β2 ([2]; KMS-18, LU-005 9.0 μM 1 h): 62 ± 5 % control | Inhibition of active sites β2 ([2]; MM1.R, LU-005 0.004 μM 1 h): 6.5 ± 0.5 % control | Inhibition of active sites β2 ([2]; NCI-H929, LU-005 0.0014 μM 1 h): −9 ± 2 % control | Inhibition of active sites β2 ([2]; NCI-H929, LU-005 0.004 μM 1 h): −13 ± 7 % control | Inhibition of active sites β2 ([2]; RPMI-8226, LU-005 0.037 μM 1 h): 1 ± 17 % control | Inhibition of active sites β2 ([2]; RPMI-8226, LU-005 0.33 μM 1 h): 13 ± 11 % control | Inhibition of active sites β2 ([2]; RPMI-8226, LU-005 1.0 μM 1 h): 22 ± 19 % control | Inhibition of active sites β1 ([3]; KMS-12-BM, LU-005 0.037 μM 1 h): −1 ± 5 % control | Inhibition of active sites β1 ([3]; KMS-12-BM, LU-005 0.33 μM 1 h): 6 ± 12 % control | Inhibition of active sites β1 ([3]; KMS-12-BM, LU-005 1.0 μM 1 h): 11 ± 16 % control | Inhibition of active sites β1 ([3]; KMS-18, LU-005 0.037 μM 1 h): 0 ± 8 % control | Inhibition of active sites β1 ([3]; KMS-18, LU-005 0.33 μM 1 h): 29 ± 7 % control | Inhibition of active sites β1 ([3]; KMS-18, LU-005 1.0 μM 1 h): 32 ± 4 % control | Inhibition of active sites β1 ([3]; KMS-18, LU-005 3.0 μM 1 h): 39 ± 12 % control | Inhibition of active sites β1 ([3]; KMS-18, LU-005 9.0 μM 1 h): 42 ± 2 % control | Inhibition of active sites β1 ([3]; MM1.R, LU-005 0.004 μM 1 h): 6 ± 8 % control | Inhibition of active sites β1 ([3]; NCI-H929, LU-005 0.0014 μM 1 h): −14 ± 15 % control | Inhibition of active sites β1 ([3]; NCI-H929, LU-005 0.004 μM 1 h): −7 ± 10 % control | Inhibition of active sites β1 ([3]; RPMI-8226, LU-005 0.037 μM 1 h): 16 ± 7 % control | Inhibition of active sites β1 ([3]; RPMI-8226, LU-005 0.33 μM 1 h): 37 ± 15 % control | Inhibition of active sites β1 ([3]; RPMI-8226, LU-005 1.0 μM 1 h): 37 ± 4 % control
